Measured values published in paper PMC12974487, “Inhibition of FicD-mediated AMPylation and deAMPylation by isoprenoid diphosphates” (Proceedings of the National Academy of Sciences of the …, 2026).
Changes are numbered by the printed parent chain.

Legend:
[1] = target: T1, FicD^L258D (Homo sapiens, UniProt Q9BVA6, L258D); test: Differential scanning fluorimetry (DSF) thermal shift with FicD^L258D; type: binding
T1 construct: soluble ER luminal domain (residues 105 to 458) of wild-type human FicD and three mutants; 6xHis-Sumo (N, cleaved yes); made in house; host or cells: Rosetta(DE3) E. coli
T1 sequence (Q9BVA6 105-458 L258D): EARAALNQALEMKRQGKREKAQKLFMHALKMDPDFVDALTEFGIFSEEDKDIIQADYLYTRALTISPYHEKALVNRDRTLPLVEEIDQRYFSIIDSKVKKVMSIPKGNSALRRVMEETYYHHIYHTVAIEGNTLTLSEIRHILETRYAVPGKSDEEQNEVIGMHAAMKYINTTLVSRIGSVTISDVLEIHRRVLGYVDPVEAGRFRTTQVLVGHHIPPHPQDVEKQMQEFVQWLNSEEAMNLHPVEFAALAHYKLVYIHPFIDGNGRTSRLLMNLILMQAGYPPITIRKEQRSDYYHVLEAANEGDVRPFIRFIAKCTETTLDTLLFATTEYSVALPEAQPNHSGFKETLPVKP
Procedure: Differential Scanning Fluorimetry
Thermal shift assays were performed in Biorad CfX384 Touch Real-Time PCR Detection System […]
Reactions contained 50mM HEPES pH 7.4, 200mM NaCl, 200mM KCl, 200uM DTT, 5X Invitrogen Sypro Orange (Cat no. S6650), 8-9μM protein, and indicated nucleotide, cofactor, or small molecule in a total volume of 20uL. For every experiment ‘no protein’ controls were also included with the same reaction conditions. All reactions were performed in technical triplicates. Sealed plates containing reaction mixes were centrifuged for 1-5 min at 1000 RPM prior to temperature scanning (FRET channel), which was performed from 6°C […]
DSF data was analyzed with traditional methods automated in a Python package (https://pypi.org/project/instawell/). Briefly, for each temperature, the RFU values of technical triplicates are averaged. For each timepoint, the background fluorescence was subtracted using the RFU values of the ‘no protein’ control. […]
calculated. The melting temperature (Tm) is defined as the first derivative peak value. Data

[2] = target: T2, FicD^E234G (Homo sapiens, UniProt Q9BVA6, E234G); test: MIDAS metabolite screen, FicD^E234G; type: binding; settings: cutoff Q < 0.05 and |Log2 corrected fold change| > 2, metabolites 5 µM
T2 construct: soluble ER luminal domain (residues 105 to 458) of wild-type human FicD and three mutants; 6xHis-Sumo (N, cleaved yes); made in house; host or cells: Rosetta(DE3) E. coli
T2 sequence (Q9BVA6 105-458 E234G): T1 sequence (Q9BVA6 105-458 L258D) with E130G, D154L
Text: (§2) To identify small-molecule metabolite interactions with FicD, we applied an unbiased high-throughput screening approach known as MIDAS ([44]).

[3] = target: T3, FicD^WT (Homo sapiens, UniProt Q9BVA6); test: In vitro AMPylation of Δ26hBiP^T229A by FicD^WT (Western blot); type: biochemical; settings: 100 μM metabolite, 500 μM ATP, 5 mM MgCl2
T3 construct: soluble ER luminal domain (residues 105 to 458) of wild-type human FicD; 6xHis-Sumo (N, cleaved yes); made in house; host or cells: Rosetta(DE3) E. coli
T3 sequence (Q9BVA6 105-458): T1 sequence (Q9BVA6 105-458 L258D) with D154L
Text: (§1) We next sought to assess the effects of FPP, GPP, and isoprenoid analogues on FicD activity. To accurately judge the effects of small molecules on FicD AMPylation activity, we used the ATPase defective BiP^T229A mutant as substrate ([22], [49], [50]). Loss of ATP hydrolysis by the BiP mutant ensures: 1. conformational homogeneity of the BiP protein substrate; 2. lack of BiP competition for the ATP substrate; and 3. no production of ADP, a competitive inhibitor for ATP. In addition, we deleted the first 25 amino acids of BiP for ease with its purification and solubility. […]
For AMPylation assays with FicD and BiP, Δ104FicDWT and Δ26hBiPT229A were combined at a ratio
of 1:80 in buffer containing 25mM HEPES pH 7.4, 100mM KCl, 5mM MgCl2, 500μM ATP, 1mM
DTT, and small molecule where indicated. Assays with Δ104FicDWT were incubated for 1 hour.
the amount of FicD as in reactions containing FicDWT and were incubated at 37C for 4.5 hours. […]

[4] = target: T3, FicD^WT; test: In vitro deAMPylation of Δ26hBiP^T229A-AMP by FicD^WT (Western blot); type: biochemical; settings: 100 μM metabolite, 5 mM MgCl2
Text: as §1
For deAMPylation assays with FicD and BiP, Δ26hBiPT229A was in-vitro AMPylated by […]
5mM MgCl2, 500uM ATP, 0.5% CHAPS, 1mM DTT. After one hour of incubation at 30-37C, the entire reaction mix was transferred into an Amicon 0.5mL 50kDa MWCO concentrator (cat no.
7.4/150mM NaCl/10% glycerol/1mM DTT was added to the concentrated AMPylation reaction and then spun down again at 14,000 x g at 4C for 5-10 minutes. This step was repeated four times to buffer exchange AMPylated Δ26hBiPT229A.
Δ104hFicDWT and Δ26hBiPT229A-AMP were combined at a ratio of 1:80 in buffer containing 25mM HEPES pH 7.4, 100mM KCl, 5mM MgCl2, 1mM DTT and the indicated small molecule where applicable. Reactions were incubated at 37C for 1 hour and stopped by the addition EDTA. 5X SDS sample buffer (250mM Tris pH 6.8, 10% Lithium dodecyl sulfate, 50% glycerol, 50mM DTT, 0.05% Bromophenol blue) was then added to the reactions and reactions were heated for 5 minutes at […]

[5] = target: T3, FicD^WT; test: MIDAS equilibrium dialysis/mass spectrometry metabolite screen, FicD^WT; type: binding; settings: cutoff Q < 0.05 and |Log2 corrected fold change| > 2, metabolites 5 µM
Text: as §2

Structure (SMILES): Nc1ncnc2c1ncn2[C@@H]1O[C@H](COP(=O)(O)OP(=O)(O)OP(=O)(O)O)[C@@H](O)[C@H]1O [ATP, adenosine triphosphate]
- binding to FicD^L258D by DSF ([1]; absence of MgCl2): did not bind
- binding to FicD^L258D by DSF ([1]; presence of 5 mM MgCl2): did not show saturation
- MIDAS protein-metabolite interaction (enrichment/depletion) [2]: did not pass the significance cutoff

Structure (SMILES): CC(C)=CCOP(=O)(O)OP(=O)(O)O [DMAPP, dimethylallyl-pyrophosphate]
- binding to FicD^L258D by DSF ([1]; presence of 5 mM MgCl2): did not bind
- inhibition of AMPylation of Δ26hBiP^T229A by FicD^WT [3]: did not
- inhibition of deAMPylation activity of FicD^WT [4]: did not affect

Structure (SMILES): CC(C)=CCC/C(C)=C\CC/C(C)=C\COP(=O)(O)O [FMP, farnesyl-monophosphate]
- binding to FicD^L258D by DSF ([1]; presence of 5 mM MgCl2): did not bind
- inhibition of AMPylation of Δ26hBiP^T229A by FicD^WT [3]: did not
- inhibition of deAMPylation activity of FicD^WT [4]: did not affect

Structure (SMILES): CC(C)=CCC/C(C)=C/COP(=O)(O)O [GMP, geranyl-monophosphate]
- binding to FicD^L258D by DSF ([1]; presence of 5 mM MgCl2): did not bind
- inhibition of AMPylation of Δ26hBiP^T229A by FicD^WT [3]: did not
- inhibition of deAMPylation activity of FicD^WT [4]: did not affect

Structure (SMILES): CC(O)(CCOP(=O)(O)OP(=O)(O)O)CC(=O)O (stereo not shown) [MVAPP, mevalonate-pyrophosphate]
- binding to FicD^L258D by DSF ([1]; presence of 5 mM MgCl2): did not bind
- inhibition of AMPylation of Δ26hBiP^T229A by FicD^WT [3]: did not
- inhibition of deAMPylation activity of FicD^WT [4]: did not affect

Structure (SMILES): CC(C)=CCC/C(C)=C/CC/C(C)=C/CO [farnesol]
- binding to FicD^L258D by DSF ([1]; presence of 5 mM MgCl2): did not bind
- inhibition of AMPylation of Δ26hBiP^T229A by FicD^WT [3]: did not
- inhibition of deAMPylation activity of FicD^WT [4]: did not affect

Structure (SMILES): CC(C)=CCC/C(C)=C/CO [geraniol]
- binding to FicD^L258D by DSF ([1]; presence of 5 mM MgCl2): did not bind
- inhibition of AMPylation of Δ26hBiP^T229A by FicD^WT [3]: did not
- inhibition of deAMPylation activity of FicD^WT [4]: did not affect

Structure (SMILES): O=CC(=O)O [glyoxylic acid]
- MIDAS protein-metabolite interaction (enrichment/depletion) [5]: significantly depleted
